Results taken from patent US6518050B1, “Process for producing and extracting aromatic compounds” (Revico, priority 1998, dated 2003).

How the values were obtained:
Sporobolomyces odorus [1] = assay: Biomass production (OD at 620 nm) of S. odorus cultures on distilling slops with added precursor or additives; format: cell-based; settings: for Biomass (OD at 620 nm): culture period of 77 hours; for OD at 620 nm: measured after 77 hours, 0 ml: 8.74; for OD620: HNCH 5 g/vial, culture period of 150 hours
Description: During these culture processes, performed in a liquid medium, temperature was held at 24° C. and stirring was at 250 rpm (revolutions per minute).
Time dependency of the amount of biomass produced during cultivation of this yeast, was tracked by measuring the optical density (OD) of the cell suspension at 620 nm. On the spectrophotometer, 0 was obtained with a sample of pure medium (baseline).
In order to test the effect of adding methyl ricinoleate to cultures of S. odorus on distilling slops exclusively, 1 ml of this precursor was added to cellular suspensions of 60 ml of 24 hours of age. […] Indeed, instead of a final concentration, after 77 hours, of 1.02 mg/l on distilling slops or of 6.47 mg/l when castor oil was added, we obtained concentrations of 28.23 mg/l (FIG. 8). […] So it would become rapidly a limiting factor in obtaining free ricinoleic acid from castor oil. Adding directly usable methyl ricinoleate overcomes this problem and lactone production yields are improved.
In order to optimize the added amount of methyl ricinoleate, we produced cultures to which we added after 24 hours either 0.83%, or 1.66%, or 10% (v/v) of methyl ricinoleate.
Additions of RM were performed at instants t=0, 24, 48 and 72 hours. These cultures were produced in 250 ml erlenmeyers containing 5 g of HNCH and 60 ml of sown distilling slops at an initial yeast cell density of 0.2 units of OD620 (optical density measured at 620 nm).
With the aim of increasing the productivity of the system by implementing an in situ extraction of γ-decalactone, two series of tests were conducted; one at an initial cell density of 0.2 (control), the other at an initial cell density of 4.

Sporobolomyces odorus [2] = assay: Toxicity of γ-decalactone: yeast growth kinetics on distilling slop medium containing lactone; format: cell-based
Description: Time dependency of the amount of biomass produced during cultivation of this yeast, was tracked by measuring the optical density (OD) of the cell suspension at 620 nm. On the spectrophotometer, 0 was obtained with a sample of pure medium (baseline). In order to determine whether γ-decalactone is toxic for cells, yeast growth kinetics on a distilling slop medium containing either 50 mg/l or 250 mg/l of lactone were obtained (FIG. 11). […] Beyond this point, a shift was observed. […] Indeed, the maximum achieved OD was 4 instead of 15 in the control. This same phenomenon was already observed by Ferron and al. (1996) who determined that the compatible dose with a non-zero cell growth rate is between 100 and 200 mg/l. This would partly explain why lactone concentrations of 250 to 300 mg/l were not exceeded under the retained experimental conditions.

Row | SMILES | Biomass (OD at 620 nm) (Sporobolomyces odorus [1]; 0.06% at t = 0 hrs + 0.83% at t = 24 hrs) | OD at 620 nm (Sporobolomyces odorus [1]; 0.5 ml RM added to 60 ml culture after 24 hours) | Biomass (OD at 620 nm) (Sporobolomyces odorus [1]; 0.83% v/v at t = 24 hrs) | OD at 620 nm (Sporobolomyces odorus [1]; 1 ml RM added to 60 ml culture after 24 hours) | biomass, OD (Sporobolomyces odorus [1]; 1 ml added to 60 ml cultures of 24 hours of age, after 77 hours, 14.0 on distilling slops exclusively) | OD620 (Sporobolomyces odorus [1]; 4×0.03, 0.06 or 0.12% (v/v) of precursor) | OD620 (Sporobolomyces odorus [1]; 4×0.18% (v/v) of precursor) | OD at 620 nm (Sporobolomyces odorus [1]; 6 ml RM added to 60 ml culture after 24 hours) | effect on the yeast's growth (Sporobolomyces odorus [2]; 50 mg/l lactone in distilling slop medium, first 50 hours of culture) | microorganism growth (Sporobolomyces odorus [2]; 250 mg of lactone in distilling slop medium) | maximum achieved OD (Sporobolomyces odorus [2]; 250 mg of lactone, control 15) | toxicity exerted on yeast above (concentration) (Sporobolomyces odorus [2]; statement in section C 1.1) | toxic effect observed beyond (concentration) (Sporobolomyces odorus [2]; summary statement of section 6) [mg/L]
1 | CCCCCC[C@@H](O)C/C=C\CCCCCCCC(=O)OC [methyl ricinoleate] | 8.4 | 8.00 | 8.0 | 7.94 | 11.06 | 8 | 15 | 8.98 | – | – | – | – | –
2 | CCCCCCC1CCC(=O)O1 (stereo not shown) [γ-decalactone] | – | – | – | – | – | – | – | – | did not affect the yeast's growth | significantly reduced | 4 | above 150 mg/l | > 250
